{"source": "paper PMC5218480", "about": "(PLoS ONE, 2017)", "tested_on": "MV-4-11 cells", "assay": "Gene expression microarray analysis (Affymetrix PrimeView) and GSEA", "assay_type": "cell-based, human", "parameters": "RFU PODN (11730768_x_at) / Fold change /veh PODN (11730768_x_at) / RFU LINC00158 (11744669_a_at) / Fold change /veh LINC00158 (11744669_a_at) / RFU DUSP10 (11751237_a_at) / Fold change /veh DUSP10 (11751237_a_at) / RFU ID3 (11757404_x_at) / Fold change /veh ID3 (11757404_x_at) / RFU PLEKHG5 (11737974_s_at) / Fold change /veh PLEKHG5 (11737974_s_at) / RFU LRRC4B (11730491_at) / Fold change /veh LRRC4B (11730491_at) / RFU GIMAP4 (11747438_a_at) / Fold change /veh GIMAP4 (11747438_a_at) / RFU KRT8 (11758183_x_at) / Fold change /veh KRT8 (11758183_x_at) / RFU CNN1 (11734310_a_at) / Fold change /veh CNN1 (11734310_a_at) / RFU VPS37D (11726825_at) / Fold change /veh VPS37D (11726825_at) / RFU C10orf10 (11716522_x_at) / Fold change /veh C10orf10 (11716522_x_at) / RFU KIR2DL2 /// KIR2DL4 /// KIR2DL5A /// KIR2DL5B /// KIR2DS1 /// KIR2DS2 /// KIR2DS3 /// KIR2DS4 /// KIR3DL3 /// KIR3DL3 /// KIR3DS1 (11738374_at) / Fold change /veh KIR2DL2 /// KIR2DL4 /// KIR2DL5A /// KIR2DL5B /// KIR2DS1 /// KIR2DS2 /// KIR2DS3 /// KIR2DS4 /// KIR3DL3 /// KIR3DL3 /// KIR3DS1 (11738374_at) / RFU C1QL1 (11718748_at) / Fold change /veh C1QL1 (11718748_at) / RFU TMPRSS4 (11747572_a_at) / Fold change /veh TMPRSS4 (11747572_a_at) / RFU HAMP (11756126_x_at) / Fold change /veh HAMP (11756126_x_at) / RFU RNFT2 (11725882_a_at) / Fold change /veh RNFT2 (11725882_a_at) / RFU NR4A2 (11747474_a_at) / Fold change /veh NR4A2 (11747474_a_at) / RFU ABCC12 (11746883_a_at) / Fold change /veh ABCC12 (11746883_a_at) / RFU TMEM136 (11760407_x_at) / Fold change /veh TMEM136 (11760407_x_at) / RFU CLDN22 /// WWC2 (11732394_at) / Fold change /veh CLDN22 /// WWC2 (11732394_at) / RFU HLA-DPB1 (11760878_x_at) / Fold change /veh HLA-DPB1 (11760878_x_at) / RFU SPINT1 (11716480_a_at) / Fold change /veh SPINT1 (11716480_a_at) / RFU GAP43 (11754022_s_at) / Fold change /veh GAP43 (11754022_s_at) / RFU A4GNT (11735810_at) / Fold change /veh A4GNT (11735810_at) / RFU PRB3 (11715151_x_at) / Fold change /veh PRB3 (11715151_x_at) / RFU TUBB4B (11761932_at) / Fold change /veh TUBB4B (11761932_at) / RFU CAPN14 (11732068_a_at) / Fold change /veh CAPN14 (11732068_a_at) / RFU TMCC2 (11721928_a_at) / Fold change /veh TMCC2 (11721928_a_at) / RFU IRGQ (11745062_a_at) / Fold change /veh IRGQ (11745062_a_at) / RFU FAM174B (11720279_a_at) / Fold change /veh FAM174B (11720279_a_at) / RFU TMPRSS4 (11748680_a_at) / Fold change /veh TMPRSS4 (11748680_a_at) / RFU FAM212B (11763350_a_at) / Fold change /veh FAM212B (11763350_a_at) / RFU PLEKHG5 (11743358_a_at) / Fold change /veh PLEKHG5 (11743358_a_at) / RFU ZSCAN30 (11745921_a_at) / Fold change /veh ZSCAN30 (11745921_a_at) / RFU CMKLR1 (11741424_a_at) / Fold change /veh CMKLR1 (11741424_a_at) / RFU LOC101060620 /// MAPK8IP1 (11723275_at) / Fold change /veh LOC101060620 /// MAPK8IP1 (11723275_at) / RFU SPTSSB (11747773_x_at) / Fold change /veh SPTSSB (11747773_x_at) / RFU PRSS12 (11739890_at) / Fold change /veh PRSS12 (11739890_at) / RFU BIN1 (11741810_x_at) / Fold change /veh BIN1 (11741810_x_at) / RFU WNT11 (11732464_a_at) / Fold change /veh WNT11 (11732464_a_at) / RFU C10orf10 (11716521_a_at) / Fold change /veh C10orf10 (11716521_a_at) / RFU C5orf56 (11738089_at) / Fold change /veh C5orf56 (11738089_at) / RFU CYB561 (11721691_x_at) / Fold change /veh CYB561 (11721691_x_at) / RFU ANKRD19P (11752326_a_at) / Fold change /veh ANKRD19P (11752326_a_at) / RFU OR2T12 /// OR2T33 /// OR2T8 (11738714_s_at) / Fold change /veh OR2T12 /// OR2T33 /// OR2T8 (11738714_s_at) / RFU VCAN (11748164_a_at) / Fold change /veh VCAN (11748164_a_at) / RFU JSRP1 (11732532_at) / Fold change /veh JSRP1 (11732532_at) / RFU KRTAP10-11 (11738290_x_at) / Fold change /veh KRTAP10-11 (11738290_x_at) / RFU MYO3A (11730013_a_at) / Fold change /veh MYO3A (11730013_a_at) / RFU EBF3 (11725865_a_at) / Fold change /veh EBF3 (11725865_a_at) / RFU CAMK2N1 (11719241_x_at) / Fold change /veh CAMK2N1 (11719241_x_at) / RFU C5orf56 (11738088_a_at) / Fold change /veh C5orf56 (11738088_a_at) / RFU OLFML3 (11715873_a_at) / Fold change /veh OLFML3 (11715873_a_at) / RFU LOC100653217 /// NTM (11731650_a_at) / Fold change /veh LOC100653217 /// NTM (11731650_a_at) / RFU MAPK11 (11762145_a_at) / Fold change /veh MAPK11 (11762145_a_at) / RFU FIZ1 (11724087_x_at) / Fold change /veh FIZ1 (11724087_x_at) / RFU OASL (11726364_x_at) / Fold change /veh OASL (11726364_x_at) / RFU SOX15 (11748057_x_at) / Fold change /veh SOX15 (11748057_x_at) / RFU CD79A (11719716_a_at) / Fold change /veh CD79A (11719716_a_at) / RFU HIST1H1D (11736915_at) / Fold change /veh HIST1H1D (11736915_at) / RFU CASKIN2 (11723855_a_at) / Fold change /veh CASKIN2 (11723855_a_at) / RFU LOC730098 (11760151_x_at) / Fold change /veh LOC730098 (11760151_x_at) / RFU OR4N2 (11742367_at) / Fold change /veh OR4N2 (11742367_at) / RFU PRRT2 (11749266_a_at) / Fold change /veh PRRT2 (11749266_a_at) / RFU SNX32 (11753110_a_at) / Fold change /veh SNX32 (11753110_a_at) / RFU CDHR5 (11726645_a_at) / Fold change /veh CDHR5 (11726645_a_at) / RFU RCAN1 (11760418_a_at) / Fold change /veh RCAN1 (11760418_a_at) / RFU FAM167A (11723789_a_at) / Fold change /veh FAM167A (11723789_a_at) / RFU FAM26E (11764081_at) / Fold change /veh FAM26E (11764081_at) / RFU ISYNA1 (11749810_s_at) / Fold change /veh ISYNA1 (11749810_s_at) / RFU ACY1 (11761880_at) / Fold change /veh ACY1 (11761880_at) / RFU 11764098_at / Fold change /veh 11764098_at / RFU SAMD14 (11745864_x_at) / Fold change /veh SAMD14 (11745864_x_at) / RFU NPB (11741838_a_at) / Fold change /veh NPB (11741838_a_at) / RFU TMPRSS6 (11731388_a_at) / Fold change /veh TMPRSS6 (11731388_a_at) / RFU KRTAP10-2 (11738614_at) / Fold change /veh KRTAP10-2 (11738614_at) / RFU ARHGAP8 /// PRR5-ARHGAP8 (11727945_x_at) / Fold change /veh ARHGAP8 /// PRR5-ARHGAP8 (11727945_x_at) / RFU KRTAP5-7 /// NADSYN1 (11734609_at) / Fold change /veh KRTAP5-7 /// NADSYN1 (11734609_at) / RFU RASL12 (11751679_a_at) / Fold change /veh RASL12 (11751679_a_at) / RFU CDKN2B (11736163_a_at) / Fold change /veh CDKN2B (11736163_a_at) / RFU PRF1 (11729649_at) / Fold change /veh PRF1 (11729649_at) / RFU, ZNF638 /// ZNF638-IT1 / Fold change vs veh, ZNF638 /// ZNF638-IT1 / RFU, PANK3 / Fold change vs veh, PANK3 / RFU, SH3YL1 / Fold change vs veh, SH3YL1 / RFU, ZEB2 / Fold change vs veh, ZEB2 / RFU, NRIP1 / Fold change vs veh, NRIP1 / RFU, PTTG1IP / Fold change vs veh, PTTG1IP / RFU, CAPN2 / Fold change vs veh, CAPN2 / RFU, MED14 / Fold change vs veh, MED14 / RFU, SNORA58 / Fold change vs veh, SNORA58 / RFU, C1orf63 / Fold change vs veh, C1orf63 / RFU, LRRFIP1 / Fold change vs veh, LRRFIP1 / RFU, NDUFAF7 / Fold change vs veh, NDUFAF7 / RFU, SLC12A2 / Fold change vs veh, SLC12A2 / RFU, IBTK / Fold change vs veh, IBTK / RFU, ESF1 / Fold change vs veh, ESF1 / Fold change vs veh, TMEM50B / RFU, TAOK1 / Fold change vs veh, TAOK1 / RFU, ACBD3 / Fold change vs veh, ACBD3 / RFU, TMA16 / Fold change vs veh, TMA16 / RFU, RWDD3 / Fold change vs veh, RWDD3 / RFU, BCAT1 / Fold change vs veh, BCAT1 / RFU, EDEM3 / Fold change vs veh, EDEM3 / RFU, TMEM33 / Fold change vs veh, TMEM33 / RFU, WDR75 / Fold change vs veh, WDR75 / RFU, AHCTF1 / Fold change vs veh, AHCTF1 / RFU, TFRC / Fold change vs veh, TFRC / RFU, ZDHHC17 / Fold change vs veh, ZDHHC17 / RFU, NOM1 / Fold change vs veh, NOM1 / RFU, ARL8B / Fold change vs veh, ARL8B / RFU, ZBTB11 / Fold change vs veh, ZBTB11 / RFU, TAMM41 / Fold change vs veh, TAMM41 / RFU, KIAA1704 /// LOC100996395 / Fold change vs veh, KIAA1704 /// LOC100996395 / RFU, ING1 / Fold change vs veh, ING1 / RFU, TRMT61B / Fold change vs veh, TRMT61B / RFU, FUBP3 / Fold change vs veh, FUBP3 / RFU, TP53 / Fold change vs veh, TP53 / RFU, TNKS2 / Fold change vs veh, TNKS2 / RFU, ZFP14 / Fold change vs veh, ZFP14 / RFU, ACTR2 / Fold change vs veh, ACTR2 / RFU, PPP3R1 / Fold change vs veh, PPP3R1 / RFU, PIK3R1 / Fold change vs veh, PIK3R1 / RFU, HNRNPA1 / Fold change vs veh, HNRNPA1 / RFU, RNF170 / Fold change vs veh, RNF170 / RFU, ZNF28 / Fold change vs veh, ZNF28 / RFU, RNGTT / Fold change vs veh, RNGTT / RFU, OGT / Fold change vs veh, OGT / RFU, BRD1 / Fold change vs veh, BRD1 / RFU, MARS / Fold change vs veh, MARS / RFU, ZNF655 / Fold change vs veh, ZNF655 / RFU, FAHD1 / Fold change vs veh, FAHD1 / RFU, BDP1 / Fold change vs veh, BDP1 / RFU, LRRCC1 / Fold change vs veh, LRRCC1 / RFU, ARID1A / Fold change vs veh, ARID1A / RFU, ZNF146 / Fold change vs veh, ZNF146 / RFU, ZNF330 / Fold change vs veh, ZNF330 / RFU, GPN3 / Fold change vs veh, GPN3 / RFU, C9orf123 / Fold change vs veh, C9orf123 / RFU, N4BP2L2 / Fold change vs veh, N4BP2L2 / RFU, ARFIP1 / Fold change vs veh, ARFIP1 / RFU, FAM179B / Fold change vs veh, FAM179B / RFU, BCL10 / Fold change vs veh, BCL10 / RFU, UHRF1BP1L / Fold change vs veh, UHRF1BP1L / RFU, BET1 / Fold change vs veh, BET1 / RFU, CNOT2 / Fold change vs veh, CNOT2 / RFU, ZNF268 / Fold change vs veh, ZNF268 / Fold change vs veh, ZNF507 / RFU, DGCR2 / Fold change vs veh, DGCR2 / RFU, WDSUB1 / Fold change vs veh, WDSUB1 / Fold change vs veh, HSP90B1 /// MIR3652 / RFU, ADSS / Fold change vs veh, ADSS / RFU, GK / Fold change vs veh, GK / RFU, ZNF148 / Fold change vs veh, ZNF148 / RFU, TAF9 / Fold change vs veh, TAF9 / RFU, SLC1A5 / Fold change vs veh, SLC1A5 / RFU, SLMO2 / Fold change vs veh, SLMO2 / RFU, ABCC4 / Fold change vs veh, ABCC4 / RFU, LOC101060439 /// RAP1B / Fold change vs veh, LOC101060439 /// RAP1B / RFU, RFX7 / Fold change vs veh, RFX7 / RFU, GTPBP10 / Fold change vs veh, GTPBP10 / RFU, CNEP1R1 / Fold change vs veh, CNEP1R1 / RFU, BIVM-ERCC5 /// ERCC5 / Fold change vs veh, BIVM-ERCC5 /// ERCC5 / RFU, ILF3 / Fold change vs veh, ILF3 / RFU 11762660_at / Fold change /veh 11762660_at / RFU VCAN (11757783_s_at) / Fold change /veh VCAN (11757783_s_at) / RFU DDX43 (11728927_at) / Fold change /veh DDX43 (11728927_at) / RFU KRT8 (11758188_x_at) / Fold change /veh KRT8 (11758188_x_at) / RFU NKD1 (11759106_at) / Fold change /veh NKD1 (11759106_at) / RFU SRD5A1 (11742802_a_at) / Fold change /veh SRD5A1 (11742802_a_at) / RFU TPSAB1 /// TPSB2 (11721975_s_at) / Fold change /veh TPSAB1 /// TPSB2 (11721975_s_at) / RFU GSTM3 (11746129_a_at) / Fold change /veh GSTM3 (11746129_a_at) / RFU IL23R (11737362_x_at) / Fold change /veh IL23R (11737362_x_at) / RFU TMEM51 (11727254_a_at) / Fold change /veh TMEM51 (11727254_a_at) / RFU PIWIL2 (11732686_x_at) / Fold change /veh PIWIL2 (11732686_x_at) / RFU ORM1 (11744905_x_at) / Fold change /veh ORM1 (11744905_x_at) / RFU CCDC152 (11743942_at) / Fold change /veh CCDC152 (11743942_at) / RFU ECM1 (11717891_a_at) / Fold change /veh ECM1 (11717891_a_at) / RFU IL23R (11748794_a_at) / Fold change /veh IL23R (11748794_a_at) / RFU TNFAIP8L3 (11732012_x_at) / Fold change /veh TNFAIP8L3 (11732012_x_at) / RFU MBOAT4 (11741988_at) / Fold change /veh MBOAT4 (11741988_at) / RFU 11764193_at / Fold change /veh 11764193_at / RFU TMEM53 (11763286_at) / Fold change /veh TMEM53 (11763286_at) / RFU MAGEB2 (11727129_at) / Fold change /veh MAGEB2 (11727129_at) / RFU TMEM200A (11744735_a_at) / Fold change /veh TMEM200A (11744735_a_at) / RFU CCDC152 (11751479_a_at) / Fold change /veh CCDC152 (11751479_a_at) / RFU FAM211A (11726209_a_at) / Fold change /veh FAM211A (11726209_a_at) / RFU RGS16 (11746705_a_at) / Fold change /veh RGS16 (11746705_a_at) / RFU VCAN (11755009_s_at) / Fold change /veh VCAN (11755009_s_at) / RFU RHOB (11743442_s_at) / Fold change /veh RHOB (11743442_s_at) / RFU RGS16 (11720943_a_at) / Fold change /veh RGS16 (11720943_a_at) / RFU RGS16 (11720944_at) / Fold change /veh RGS16 (11720944_at) / RFU, VPS4B / Fold change vs veh, VPS4B / RFU, CREB1 / Fold change vs veh, CREB1 / RFU, DNAJC13 / Fold change vs veh, DNAJC13 / RFU, GNAQ / Fold change vs veh, GNAQ / RFU, CDK5R1 / Fold change vs veh, CDK5R1 / RFU, ZRANB3 / Fold change vs veh, ZRANB3 / RFU, CUL4A / Fold change vs veh, CUL4A / RFU, CCNY / Fold change vs veh, CCNY / RFU, UFL1 / Fold change vs veh, UFL1 / RFU, COG3 / Fold change vs veh, COG3 / RFU, DIAPH2 / Fold change vs veh, DIAPH2 / RFU, SKA2 / Fold change vs veh, SKA2 / RFU, AFF3 / Fold change vs veh, AFF3 / RFU, LMF1 / Fold change vs veh, LMF1 / RFU, IPO11 / Fold change vs veh, IPO11 / RFU, DFFB / Fold change vs veh, DFFB / RFU, FOXP1 / Fold change vs veh, FOXP1 / RFU, CARD8 / Fold change vs veh, CARD8 / RFU, STRN3 / Fold change vs veh, STRN3 / RFU, ADK / Fold change vs veh, ADK / RFU, RASSF2 / Fold change vs veh, RASSF2 / RFU, WIPF1 / Fold change vs veh, WIPF1 / RFU, LARP1B / Fold change vs veh, LARP1B / RFU, RASA1 / Fold change vs veh, RASA1 / RFU, RB1 / Fold change vs veh, RB1 / RFU, PPFIA1 / Fold change vs veh, PPFIA1 / RFU, MAT2A / Fold change vs veh, MAT2A / RFU, CCT5 / Fold change vs veh, CCT5 / RFU, WDR92 / Fold change vs veh, WDR92 / RFU, CUX1 / Fold change vs veh, CUX1 / RFU, TTC7A / Fold change vs veh, TTC7A / RFU, TMEM135 / Fold change vs veh, TMEM135 / RFU, DEPTOR / Fold change vs veh, DEPTOR / RFU, CPM / Fold change vs veh, CPM / RFU, DNAJB6 / Fold change vs veh, DNAJB6 / RFU, CACNA2D3 / Fold change vs veh, CACNA2D3 / RFU, DTX4 / Fold change vs veh, DTX4 / RFU, TFCP2 / Fold change vs veh, TFCP2 / RFU, GMCL1 /// GMCL1P1 / Fold change vs veh, GMCL1 /// GMCL1P1 / RFU, AEBP2 / Fold change vs veh, AEBP2 / RFU, SNHG1 /// SNORD22 /// SNORD25 /// SNORD26 /// SNORD27 /// SNORD28 /// SNORD29 /// SNORD31 / Fold change vs veh, SNHG1 /// SNORD22 /// SNORD25 /// SNORD26 /// SNORD27 /// SNORD28 /// SNORD29 /// SNORD31 / Fold change (Aza/veh), C12orf56 (ProbeSet 11735607_a_at) / Fold change (ACY-1035/veh), C12orf56 (ProbeSet 11735607_a_at) / Fold change (Aza/veh), FGFR1OP (ProbeSet 11751329_s_at) / Fold change (ACY-1035/veh), FGFR1OP (ProbeSet 11751329_s_at) / Fold change (Aza/veh), VPS36 (ProbeSet 11739960_a_at) / Fold change (ACY-1035/veh), VPS36 (ProbeSet 11739960_a_at) / RFU SYPL1 (11715823_x_at) / Fold change /veh SYPL1 (11715823_x_at) / RFU IGFBP7 (11715501_s_at) / Fold change /veh IGFBP7 (11715501_s_at) / RFU REEP3 (11722064_at) / Fold change /veh REEP3 (11722064_at) / RFU IGLL1 (11728026_x_at) / Fold change /veh IGLL1 (11728026_x_at): dose or concentration left out as unconfirmed", "conditions": "ProbeSet 11739106_a_at; LIST B"}
{"compound": "Nc1ccc(-c2cccs2)cc1NC(=O)c1ccc2c(c1)cc(C1CC1)n2CCN1CCOCC1", "note": "[ACY-1035]", "values": [{"measurement": "RFU, TMEM33", "result": 263.53, "unit": "RFU"}]}
